These results are taken from article PMC8769072, “Proteome‐scale mapping of binding sites in the unstructured regions of the human proteome” (Molecular Systems Biology, 2022).

The test system of the test is immobilized GST-tagged bait protein domains. In words: ProP-PD phage selections (HD2 P8, sublibraries, HD2 P3, HD1 P8) with NGS and confidence level. Type of test: binding, human. The conditions noted are these: for HD confidence / HD count proportions / HD mean counts: library HD.
Setting [1] is: bait ANKRA2_Ank__Q9H9E1_142_313.
[2] abbreviates: bait ANKRA2_Ank__Q9H9E1_142_313, mean normalised NGS counts.
Setting [3] is: bait ANKRA2_Ank__Q9H9E1_142_313, mean raw NGS counts, all selections.
Setting [4] is: bait SIN3A_PAH__Q96ST3_295_383, HD2 library, whether the validated benchmark motif instance was recovered in the ProP-PD selection (TRUE/FALSE).
Where [5] appears, read: library HD2, bait KLC1_TPR__Q07866_203_497, whether the validated benchmark motif instance was recovered in the ProP-PD selection (TRUE/FALSE).
Where [6] appears, read: HD2 library, bait SUMO1_SUMO__P63165_1_101, known motif instance of the benchmarking set found (TRUE) or not found (FALSE) among selected peptides.
The mark [7] stands for this setting: bait AP2B1_adaptin__P63010_700_937, library HD2, benchmarking set of validated motif instances, TRUE = motif instance recovered in the ProP-PD selection.
Setting [8] is: bait PABP-B_PABP__P11940_544_623, HD2 library, whether the validated benchmark motif instance was recovered in the ProP-PD selection (TRUE/FALSE).
Where [9] appears, read: bait KPNA4_Arm (O00629 68-487), HD2 library, benchmark motif instance recovered in the ProP-PD selection (TRUE/FALSE).
[10] abbreviates: bait SUMO1_SUMO__P63165_1_101, HD2 library, confidence level (1-4) of best matching selected peptide.
The mark [11] stands for this setting: bait SUMO1_SUMO__P63165_1_101, HD2 library, specificity score of best matching selected peptide.
Setting [12] is: bait SUMO1_SUMO__P63165_1_101, HD2 library, whether the validated benchmark motif instance was recovered in the ProP-PD selection (TRUE/FALSE).
The mark [13] stands for this setting: library HD2, bait EIF4E_eIF4E__P06730_1_217, whether the validated benchmark motif instance was recovered in the ProP-PD selection (TRUE/FALSE).
Setting [14] is: library HD2, bait EPS15_EH__P42566_121_215, whether the validated benchmark motif instance was recovered in the ProP-PD selection (TRUE/FALSE).
Setting [15] is: HD2 library, bait TSG101_UEV__Q99816_1_145, known motif instance of the benchmarking set found (TRUE) or not found (FALSE) among selected peptides.
Setting [16] is: bait CLTC_Clathrin-propeller__Q00610_1_364, library HD2, benchmarking set of validated motif instances, TRUE = motif instance recovered in the ProP-PD selection.

For MSARPSLPPLPAKPAG, under setting [1], the HD confidence worked out at 2. Where the note is “bait ANKRA2_Ank__Q9H9E1_142_313, library HD2 P8”, this substance displayed an HD2 confidence of 2. Also, the HD count proportions under setting [2] came out at 0.0001907. For the same substance, under setting [3], the HD mean counts stood at 3.25.

MSIETLLEAARFLEWQAQQQ: under setting [4], the motif_found entry is “FALSE”.

Substance MSSLYPSLEDLKVDQA displayed an HD confidence (bait PDCD6IP_Alix-V-domain__Q8WUM4_360_702) of 2. This substance yielded a p3_HD2 confidence (bait PDCD6IP_Alix-V-domain__Q8WUM4_360_702, library HD2 P3) of 3. In addition, for the setting “bait PDCD6IP_Alix-V-domain__Q8WUM4_360_702, library HD2 P3, mean normalised NGS counts”, the p3_HD2 count proportions turned out to be 0.4191. The substance also gave a p3_HD2 mean counts (bait PDCD6IP_Alix-V-domain__Q8WUM4_360_702, library HD2 P3, mean raw NGS counts, all selections) of 20392.666666666668. Besides, under “bait PDCD6IP_Alix-V-domain__Q8WUM4_360_702, library HD2 P8”, the HD2 confidence is recorded as 4. Where the note is “bait PDCD6IP_Alix-V-domain__Q8WUM4_360_702, library HD2 P8 nucleocytoplasmic”, the HD2_nc confidence turned out to be 3. Moreover, the HD2_nc count proportions (bait PDCD6IP_Alix-V-domain__Q8WUM4_360_702, library HD2 P8 nucleocytoplasmic, mean normalised NGS counts) came out at 0.343. The HD2_nc mean counts (bait PDCD6IP_Alix-V-domain__Q8WUM4_360_702, library HD2 P8 nucleocytoplasmic, mean raw NGS counts, all selections) amounted to 24438.333333333332. In addition, under “bait PDCD6IP_Alix-V-domain__Q8WUM4_360_702, mean normalised NGS counts”, the HD count proportions is reported as 0.4404. Also, for the setting “bait PDCD6IP_Alix-V-domain__Q8WUM4_360_702, mean raw NGS counts, all selections”, the HD mean counts amounted to 2175.8.

As to NATRQQQLEWDDSTLSY-----, the motif_found entry under setting [5] is on record as “FALSE”.

In the case of NDIDEVIIPTAPLYKQILNL [TSG101 319-324], the motif_found result (HD2 library, bait TSG101_UEV__Q99816_1_145, benchmark motif instance, in_library_check FALSE, in_library_coverage 0) is recorded as “FALSE”.

On to NEEINIASSDSEVEIVGVQEHARC, for which the motif_found entry under setting [6] is recorded as “FALSE”.

Take NGAEDDDDDEFGEFGGFSEVS [AFTPH]: the motif_found result under setting [7] was “FALSE”.

With NGSSSVNWPPEFRPGEPWKGYPNIDPET, under setting [8], the motif_found entry is recorded as “FALSE”.

Take NHWQKIRTMVNLPVISPFK [ITPKA 165-183]: the motif_found result (HD2 library, bait CALM1_EF-hand__P0DP23_2_149, benchmark motif instance, in_library_check FALSE, in_library_coverage 0) is listed as “FALSE”.

As for NIHNSKAPKKNRLRRKSSTR, the motif_found entry under setting [9] was “FALSE”.

On to NKKVEVIDLTIDSSSD, for which the best_confidence under setting [10] is listed as 4. In addition, the best_specificity under setting [11] amounted to 1. Under setting [12], the motif_found result is “TRUE”.

Regarding NLEEKKRYDREFLLGFQFIFA, the motif_found result under setting [13] is on record as “FALSE”.

For the substance NLNGTIKDDFSEFDNLRTSKKTAE [EPN2], under setting [7], the motif_found result is on record as “FALSE”.

For the substance NLQLPSLDEQVIPARL, the HD confidence under setting [1] is given as 3. Further, under setting [2], the HD count proportions turned out to be 0.0005556. In addition, the HD mean counts under setting [3] is given as 7.75.

On to NMTPYRSPPPYVPP----, for which the motif_found result (bait NEDD4_WW_4 (P46934 890-928), HD2 library, benchmark motif instance recovered in the ProP-PD selection (TRUE/FALSE)) was “FALSE” and the motif_found result (library HD2, bait YAP1_WW_1_P46937_169_207, validated benchmark motif instance, in_library_check TRUE, TRUE/FALSE = instance recovered in ProP-PD selection) is on record as “FALSE”.

In turn, NPFLAPGAPATSAPVN registered a best_specificity (library HD2, bait EPS15_EH__P42566_121_215, best matching peptide) of 1. In addition, under “library HD2, bait EPS15_EH__P42566_121_215, confidence level of best matching peptide (4 High, 2-3 Medium, 1 Low)”, the best_confidence amounted to 3. For the same substance, the motif_found result under setting [14] is recorded as “TRUE”.

The substance NPNAKEFVPGVKYGNI had a best_confidence (bait PABP-B_PABP__P11940_544_623, HD2 library, confidence level (1-4) of best matching selected peptide) of 2. Where the note is “bait PABP-B_PABP__P11940_544_623, HD2 library, specificity score of best matching selected peptide”, this substance registered a best_specificity of 1. In addition, under setting [8], the motif_found result was “TRUE”.

For NRVAYIEFPPPPPLDADQI, for the setting “library HD2, bait VASP_EVH1__P50552_1_114, validated benchmark motif instance, in_library_check TRUE, TRUE/FALSE = instance recovered in ProP-PD selection”, the motif_found result was “FALSE”.

NSVTSTNLEWDDSAIAPSSEDYDF: under setting [5], the motif_found result is “FALSE”.

Regarding NTPSGKSDDDFADFHSSKFSS [SYNRG], the motif_found entry under setting [7] is “FALSE”.

As to NVQRLLEAAEFLERRE, the best_confidence (bait SIN3A_PAH__Q96ST3_295_383, HD2 library, confidence level (1-4) of best matching selected peptide) was 3. This substance yielded a best_specificity (bait SIN3A_PAH__Q96ST3_295_383, HD2 library, specificity score of best matching selected peptide) of 0.6. Under setting [4], the motif_found entry is “TRUE”.

In the case of NYCPPVKRERTSSL, the motif_found result under setting [9] was “FALSE”.

Consider NYPFTWNTPSAPPGYNIAVK, for which, under setting [15], the motif_found entry is given as “FALSE”.

Take PAAAAANELNNNLPGGAPAA: the motif_found entry (bait SPSB1_SPRY__Q96BD6_30_231, HD2 library, whether the validated benchmark motif instance was recovered in the ProP-PD selection (TRUE/FALSE)) was “FALSE”.

Substance PAPALPPKPPKPTTVA yielded a best_specificity (bait CRK_SH3_1_P46108_124_198, library HD2, best matching peptide) of 1. Also, the best_confidence (bait CRK_SH3_1_P46108_124_198, library HD2, confidence level of best matching peptide (4 = High, 2 or 3 = Medium, 1 = Low)) was determined as 2.

As to PAPAPLPPPSAPSLQPSRKL, the motif_found result under setting [15] is reported as “FALSE”.

For PATKEISLLDLEDFTPPSV [AP3B2], under setting [16], the motif_found result was “FALSE”.

On to PEISLEAEPIELVETAGDEIVD, for which the motif_found result under setting [6] is “FALSE”.

PFEEPTCINPFEMDSDSGP: the motif_found result under setting [14] is reported as “FALSE”.

Take PFSEQASLLDLDFDPLPPV [BIN1]: the motif_found result under setting [16] is “FALSE”.

In turn, PGADVVDLTLDSSSSS gave a best_confidence under setting [10] of 2. The substance further had a best_specificity under setting [11] of 1. Moreover, the motif_found entry under setting [12] was “TRUE”.

The substance PGGGHPAPSWVAFAHT registered an HD2 confidence (bait AP2B1_adaptin__P63010_700_937, HD2 P8 selection, non primary paralogue peptide match, confidence level -4 to 4: 4 = High, 3 or 2 = Medium, 1 = Low, 0 = Filtered/Noise) of 4.

Consider PGGTRIIYDRKFLLDRRNSPM, for which, under setting [13], the motif_found result is listed as “FALSE”.

Turning to PGGTRIIYDRKFLLECKNSPI, under setting [13], the motif_found entry is “FALSE”.

Take PGPPAPNTNPFLL------: the motif_found entry under setting [14] is recorded as “FALSE”.

On to “PGSAPPPQAQGPPYPTYPGYPGYCQ,QAQGPPYPTYPGY [PDCD6IP]”, for which, where the note is “bait CEP55_EABR__Q53EZ4_160_217, library HD2, benchmarking set of validated motif instances, TRUE = motif instance recovered in the ProP-PD selection”, the motif_found result is on record as “FALSE”.
